Experiment [1] concerns Magnaporthe grisea. The experiment can be described thus: whole plant or invertebrate. The format is in vivo. Particulars: Blast on rice; class of control value.
Experiment [2] deals with Alternaia brassicicola. The experiment can be described thus: Test Example C: Alternaria sooty spot on cabbage. The conditions noted are these: Alternaria sooty spot on cabbage; class of control value. It counts as in vivo. The text has this: Seeds of a test plant (cabbage variety: Shikidori) were planted and cultivated until the cotyledons extended.
<Control Value> Control value=100{1−(n/3)}

The subject of experiment [3] is Puccinia recondita. The experiment is described as follows: Test Example E: Brown rust on wheat. The format is in vivo. The conditions noted are these: Brown rust on wheat; class of control value.
The subject of experiment [4] is Phytophthora infestans. The experiment is described as follows: whole plant or invertebrate. The conditions noted are these: Late blight on tomato; class of control value. It counts as in vivo.
Experiment [5] concerns Botrytis cinerea. The experiment can be described thus: Test Example B: Gray mold on tomato. Particulars: Gray mold on tomato; class of control value.
Experiment [6] concerns Plasmopara viticola. The experiment is described as follows: Test Example G: Downy mildew on vine. Particulars: Downy mildew on vine (Neomuscat); 250 ppm spray, 2.5 ml/pot; assessed 7 to 10 days after inoculation.
Experiment [7] has as its system Colletotrichum orbiculare. The experiment is described as follows: Test Example H: Anthracnose on cucumber. Particulars: Anthracnose on cucumber (Sagami Hanjiro); 250 ppm spray, 2.5 ml/pot; assessed 6 to 10 days after inoculation.
The test system of experiment [8] is Blumeria graminis f. sp. hordei. The experiment is described as follows: Test Example D: Powdery mildew on barley. The conditions noted are these: Powdery mildew on barley; class of control value.

The structures appear in SMILES notation.

For `CCn1c(-c2c(F)cc(F)cc2F)c(C(C)(C)O)cc(Cl)c1=O` [compound 150], the “Test A control value class” value in experiment [1] was “H (more than 50% control value)”. In addition, in experiment [2], the “Test C control value class” value is reported as “H (more than 50% control value)”. In experiment [3], the “Test E control value class” value is “H (more than 50% control value)”. For the same compound, in experiment [4], the “Test F control value class” value is “L (50% or less control value)”. The “Test B control value class” value in experiment [5] is “H (more than 50% control value)”. Moreover, the “Test G control value class” value in experiment [6] is reported as “H (more than 50% control value)”. Besides, the “Test H control value class” value in experiment [7] was “H (more than 50% control value)”. The “Test D control value class” value in experiment [8] was “H (more than 50% control value)”.
Consider `CCN(Cc1cc(Cl)c(=O)n(CC)c1-c1c(F)cc(F)cc1F)OC` [compound 151], for which the “Test A control value class” value in experiment [1] is “H (more than 50% control value)”. Moreover, the “Test C control value class” value in experiment [2] is “H (more than 50% control value)”. In addition, the “Test E control value class” value in experiment [3] is recorded as “H (more than 50% control value)”. The “Test F control value class” value in experiment [4] was “L (50% or less control value)”. For the same compound, the “Test B control value class” value in experiment [5] is recorded as “H (more than 50% control value)”. Further, the “Test G control value class” value in experiment [6] is reported as “H (more than 50% control value)”. For the same compound, the “Test H control value class” value in experiment [7] is recorded as “H (more than 50% control value)”. Also, the “Test D control value class” value in experiment [8] is “H (more than 50% control value)”.
For the compound `CCN(Cc1cc(Cl)c(=O)n(CC)c1-c1c(F)cc(OC)cc1F)OC` [compound 152], in experiment [1], the “Test A control value class” value was “H (more than 50% control value)”. In addition, the “Test C control value class” value in experiment [2] is “H (more than 50% control value)”. The “Test E control value class” value in experiment [3] is “H (more than 50% control value)”. For the same compound, in experiment [4], the “Test F control value class” value was “L (50% or less control value)”. Moreover, the “Test B control value class” value in experiment [5] was “H (more than 50% control value)”. In addition, in experiment [6], the “Test G control value class” value is “H (more than 50% control value)”. Moreover, in experiment [7], the “Test H control value class” value was “H (more than 50% control value)”. Further, the “Test D control value class” value in experiment [8] is “H (more than 50% control value)”.
With `CCn1c(-c2c(F)cc(OC)cc2F)c(C(C)(O)CC(C)C)cc(Cl)c1=O` (stereo not shown) [compound 153], in experiment [1], the “Test A control value class” value is “L (50% or less control value)”. The “Test C control value class” value in experiment [2] is listed as “H (more than 50% control value)”. In addition, the “Test E control value class” value in experiment [3] is given as “H (more than 50% control value)”. In addition, in experiment [4], the “Test F control value class” value is listed as “L (50% or less control value)”. In addition, the “Test B control value class” value in experiment [5] is listed as “H (more than 50% control value)”. In experiment [6], the “Test G control value class” value was “H (more than 50% control value)”. The “Test H control value class” value in experiment [7] is “H (more than 50% control value)”. In experiment [8], the “Test D control value class” value is recorded as “H (more than 50% control value)”.
In the case of `CCn1c(-c2c(F)cc(F)cc2F)c(C(C)(O)CC(C)C)cc(Cl)c1=O` (stereo not shown) [compound 154], the “Test A control value class” value in experiment [1] is listed as “H (more than 50% control value)”. Moreover, in experiment [2], the “Test C control value class” value is reported as “H (more than 50% control value)”. Also, the “Test E control value class” value in experiment [3] was “H (more than 50% control value)”. In addition, the “Test F control value class” value in experiment [4] was “L (50% or less control value)”. In addition, the “Test B control value class” value in experiment [5] was “H (more than 50% control value)”. Also, the “Test G control value class” value in experiment [6] is recorded as “H (more than 50% control value)”. The “Test H control value class” value in experiment [7] was “H (more than 50% control value)”. In addition, the “Test D control value class” value in experiment [8] is listed as “H (more than 50% control value)”.
As for `CC(C)Cc1cc(Cl)c(=O)n(C)c1-c1ccc(F)cc1` [compound 155], the “Test A control value class” value in experiment [1] was “L (50% or less control value)”. Further, the “Test C control value class” value in experiment [2] is recorded as “H (more than 50% control value)”. Also, in experiment [3], the “Test E control value class” value is reported as “H (more than 50% control value)”. Further, the “Test F control value class” value in experiment [4] is recorded as “L (50% or less control value)”. Moreover, the “Test B control value class” value in experiment [5] is “H (more than 50% control value)”. In experiment [6], the “Test G control value class” value was “H (more than 50% control value)”. Moreover, the “Test H control value class” value in experiment [7] was “L (50% or less control value)”. Moreover, the “Test D control value class” value in experiment [8] was “H (more than 50% control value)”.
For `CC(C)Cc1cc(Br)c(=O)n(C)c1-c1ccc(F)cc1` [compound 156], the “Test A control value class” value in experiment [1] is given as “H (more than 50% control value)”. The “Test C control value class” value in experiment [2] is “H (more than 50% control value)”. Besides, the “Test E control value class” value in experiment [3] was “H (more than 50% control value)”. Moreover, the “Test F control value class” value in experiment [4] is given as “L (50% or less control value)”. In addition, in experiment [5], the “Test B control value class” value was “H (more than 50% control value)”. Also, the “Test G control value class” value in experiment [6] is reported as “L (50% or less control value)”. For the same compound, the “Test H control value class” value in experiment [7] is “L (50% or less control value)”. Further, the “Test D control value class” value in experiment [8] is given as “H (more than 50% control value)”.
`CCn1c(-c2ccc(Cl)cc2F)c(CC(C)C)ccc1=O` [compound 157]: in experiment [1], the “Test A control value class” value is “H (more than 50% control value)”. Besides, the “Test C control value class” value in experiment [2] was “H (more than 50% control value)”. In addition, the “Test E control value class” value in experiment [3] was “H (more than 50% control value)”. The “Test F control value class” value in experiment [4] is on record as “L (50% or less control value)”. Besides, the “Test B control value class” value in experiment [5] is “H (more than 50% control value)”. The “Test G control value class” value in experiment [6] was “H (more than 50% control value)”. The “Test H control value class” value in experiment [7] is listed as “L (50% or less control value)”. Moreover, the “Test D control value class” value in experiment [8] is “H (more than 50% control value)”.
On to `CCn1c(-c2ccc(Cl)cc2F)c(CC(C)C)cc(Cl)c1=O` [compound 158], for which the “Test A control value class” value in experiment [1] was “H (more than 50% control value)”. Besides, the “Test C control value class” value in experiment [2] is recorded as “H (more than 50% control value)”. In addition, the “Test E control value class” value in experiment [3] is “H (more than 50% control value)”. The “Test F control value class” value in experiment [4] is recorded as “L (50% or less control value)”. In addition, in experiment [5], the “Test B control value class” value is “H (more than 50% control value)”. Also, the “Test G control value class” value in experiment [6] is recorded as “H (more than 50% control value)”. Moreover, in experiment [7], the “Test H control value class” value was “H (more than 50% control value)”. Besides, in experiment [8], the “Test D control value class” value is on record as “H (more than 50% control value)”.
Consider `CCn1c(-c2ccc(Cl)cc2F)c(CC(C)C)cc(Br)c1=O` [compound 159], for which the “Test A control value class” value in experiment [1] was “H (more than 50% control value)”. The “Test C control value class” value in experiment [2] is listed as “H (more than 50% control value)”. The “Test E control value class” value in experiment [3] is recorded as “H (more than 50% control value)”. Further, in experiment [4], the “Test F control value class” value is listed as “L (50% or less control value)”. For the same compound, the “Test B control value class” value in experiment [5] is given as “H (more than 50% control value)”. In experiment [6], the “Test G control value class” value is reported as “H (more than 50% control value)”. The “Test H control value class” value in experiment [7] was “H (more than 50% control value)”. Further, in experiment [8], the “Test D control value class” value was “H (more than 50% control value)”.
Consider `CCn1c(-c2c(F)cc(F)cc2F)c(C(=O)CC(C)C)cc(Cl)c1=O` [compound 160], for which the “Test A control value class” value in experiment [1] is “L (50% or less control value)”. Moreover, the “Test C control value class” value in experiment [2] is “H (more than 50% control value)”. Further, the “Test E control value class” value in experiment [3] is given as “H (more than 50% control value)”. The “Test F control value class” value in experiment [4] is given as “L (50% or less control value)”. In experiment [5], the “Test B control value class” value is recorded as “H (more than 50% control value)”. Moreover, the “Test G control value class” value in experiment [6] is “H (more than 50% control value)”. In addition, the “Test H control value class” value in experiment [7] is “H (more than 50% control value)”. The “Test D control value class” value in experiment [8] was “H (more than 50% control value)”.
`CCOC(C)(C)c1cc(Cl)c(=O)n(CC)c1-c1c(F)cc(F)cc1F` [compound 161]: the “Test A control value class” value in experiment [1] is on record as “H (more than 50% control value)”. The “Test C control value class” value in experiment [2] is reported as “H (more than 50% control value)”. For the same compound, the “Test E control value class” value in experiment [3] is given as “H (more than 50% control value)”. Besides, the “Test F control value class” value in experiment [4] is “L (50% or less control value)”. Also, in experiment [5], the “Test B control value class” value was “H (more than 50% control value)”. In addition, the “Test G control value class” value in experiment [6] is listed as “H (more than 50% control value)”. Also, the “Test H control value class” value in experiment [7] is on record as “H (more than 50% control value)”. The “Test D control value class” value in experiment [8] was “H (more than 50% control value)”.
With `CCOC(C)(C)c1cc(Cl)c(=O)n(CC)c1-c1c(F)cc(OC)cc1F` [compound 162], the “Test A control value class” value in experiment [1] is listed as “H (more than 50% control value)”. For the same compound, the “Test C control value class” value in experiment [2] was “H (more than 50% control value)”. Besides, in experiment [3], the “Test E control value class” value was “H (more than 50% control value)”. The “Test F control value class” value in experiment [4] is recorded as “L (50% or less control value)”. Also, in experiment [5], the “Test B control value class” value is “H (more than 50% control value)”. Moreover, the “Test G control value class” value in experiment [6] is listed as “H (more than 50% control value)”. Also, the “Test H control value class” value in experiment [7] is on record as “H (more than 50% control value)”. The “Test D control value class” value in experiment [8] was “H (more than 50% control value)”.
Regarding `CCn1c(-c2c(F)cc(F)cc2F)c(CC(C)(C)C)cc(Cl)c1=O` [compound 169], the “Test A control value class” value in experiment [1] was “H (more than 50% control value)”. In experiment [2], the “Test C control value class” value was “H (more than 50% control value)”. The “Test E control value class” value in experiment [3] was “H (more than 50% control value)”. Also, the “Test F control value class” value in experiment [4] is “H (more than 50% control value)”. The “Test B control value class” value in experiment [5] was “H (more than 50% control value)”. Further, the “Test G control value class” value in experiment [6] is “H (more than 50% control value)”. The “Test H control value class” value in experiment [7] is “H (more than 50% control value)”. Further, the “Test D control value class” value in experiment [8] is “H (more than 50% control value)”.

These data come from patent US11147272B2, “Pyridone compounds and agricultural and horticultural fungicides comprising the same as active ingredients” (MITSUI CHEMICALS AGRO, INC., priority 2017, dated 2021).
